Read-outs that look alike come from different tables or passages of the source. Ends that are not written are not given here.
How the values were obtained:
P. aeruginosa PAO1 [1] = assay: Relative time for killing (luminescence measured at intervals); type: cell-based; conditions: peptide at ten times its EC50 (SMAP29X-18D 15.7 X, SMAP29X-14A 17.4 X), 25 mM ionic strength
P. aeruginosa PAO1 [2] = conditions: avg ± sem
E. coli DH5α = conditions: for EC50: DH5α; for EC50 E. coli DH5α: ionic strength 25 mM, avg ± sem
E. coli ML-35p = conditions: for MIC E. coli [NaCl] High: high salt underlay (10 mM sodium phosphate buffer +100 mM NaCl, pH 7.4); for MIC E. coli [NaCl] High / MIC E. coli [NaCl] Low: Table 13; for MIC E. coli [NaCl] Low: low salt underlay (10 mM sodium phosphate buffer, pH 7.4); for E. coli ML-35p MIC, 0 mM NaCl: underlay 0 mM NaCl; for E. coli ML-35p MIC, 0 mM NaCl / E. coli ML-35p MIC, 175 mM NaCl: Table 15; for E. coli ML-35p MIC, 175 mM NaCl: underlay 175 mM NaCl
P. aeruginosa MR 3007 = conditions: for MIC P. aeruginosa [NaCl] High / MIC P. aeruginosa [NaCl] Low: MR 3007, pH 7.4
S. aureus 930918-3 = conditions: for MIC S. aureus [NaCl] High / MIC S. aureus [NaCl] Low: 930918-3, pH 7.4
MRSA ATCC 33591 = conditions: for MIC MRSA [NaCl] High / MIC MRSA [NaCl] Low: ATCC 33591, pH 7.4
B. cepacia ATCC 25416 = assay: Two stage radial diffusion assay (MIC); type: cell-based; design: unit not given here; conditions: underlay 0 mM NaCl
N. gonorrhoeae = assay: Two stage radial diffusion assay (MIC); type: cell-based; design: unit not given here; conditions: done only at 100 mM NaCl; for N. gonorrhoeae F 62 (serum-sensitive): strain F 62 (serum-sensitive); for N. gonorrhoeae FA 19 (serum-resistant): strain FA 19 (serum-resistant)
L. monocytogenes EGD = assay: Two stage radial diffusion assay (MIC); type: cell-based; design: unit not given here; conditions: underlay 0 mM NaCl

Row | Substance | Half-time of Killing (min. avg. ± sem) (P. aeruginosa PAO1 [1]) [min] | EC50 P. aeruginosa PAO1 (P. aeruginosa PAO1 [2]; ionic strength 25 mM) [µg/mL] | EC50 P. aeruginosa PAO1 (P. aeruginosa PAO1 [2]; ionic strength 175 mM) [µg/mL] | EC50 (E. coli DH5α) [nM] | EC50 E. coli DH5α (E. coli DH5α) [µg/mL] | MIC E. coli [NaCl] High (E. coli ML-35p) [µg/mL] | MIC E. coli [NaCl] Low (E. coli ML-35p) [µg/mL] | MIC P. aeruginosa [NaCl] High (P. aeruginosa MR 3007) [µg/mL] | MIC P. aeruginosa [NaCl] Low (P. aeruginosa MR 3007) [µg/mL] | MIC S. aureus [NaCl] High (S. aureus 930918-3) [µg/mL] | MIC S. aureus [NaCl] Low (S. aureus 930918-3) [µg/mL] | MIC MRSA [NaCl] High (MRSA ATCC 33591) [µg/mL] | B. cepacia ATCC 25416 in underlays of low, normal and high salinity, 0 mM NaCl (B. cepacia ATCC 25416) | N. gonorrhoeae F 62 (serum-sensitive) (N. gonorrhoeae) | N. gonorrhoeae FA 19 (serum-resistant) (N. gonorrhoeae) | L. monocytogenes in underlays of low, normal and high salinity, 0 mM NaCl (L. monocytogenes EGD) | E. coli ML-35p MIC, 0 mM NaCl (E. coli ML-35p) [µg/mL] | P. aeruginosa MR-3007 MIC, 0 mM NaCl (P. aeruginosa MR 3007) [µg/mL] | S. aureus 930918-3 MIC, 0 mM NaCl (S. aureus 930918-3) [µg/mL] | MRSA ATCC 33591 MIC, 0 mM NaCl (MRSA ATCC 33591) [µg/mL] | further results
1 | GLRKRLRKFRNKIKEKLKKIG [CAP18-21a] | 9.2 ± 3.4 | 0.58 ± 0.09 | 0.54 ± 0.10 | 190 ± 10 | 0.48 ± 0.03 | 0.4 | 2.3 | 0.9 | 0.7 | 2.2 | 1.8 | >250 | – | – | – | – | – | – | – | – | MIC MRSA [NaCl] Low (MRSA ATCC 33591): 19.4 µg/mL
2 | GLRKRLRKFRNKIKEKLKKIGQKIQGLLPKLAPRTDY [CAP 18] | 4.0 ± 1.4 | 0.98 ± 0.24 | 0.50 ± 0.10 | 150 ± 20 | 0.69 ± 0.08 | 0.4 | 0.2 | 1.6 | 0.2 | 2.8 | 1.8 | 6.1 | – | – | – | – | – | – | – | – | MIC MRSA [NaCl] Low (MRSA ATCC 33591): 8.2 µg/mL
3 | GLRKRLRKFRNKIKEKLKKIGQKIQGLLPKLAPRTDY [Peptide 18] | – | – | – | – | – | – | – | – | – | – | – | – | >79.1 | 0.7 | 0.6 | 0.6 | 2.8 | 2.1 | 1.8 | 8.2 | E. coli DH-5α MIC, 0 mM NaCl (E. coli DH-5α; DH-5α): 0.84 µg/mL; P. aeruginosa PA-01 MIC, 0 mM NaCl (P. aeruginosa PA-01): 0.88 µg/mL
4 | KIKEKLKKIGQKIQG [Peptide 25] | – | – | – | – | – | – | – | – | – | – | – | – | >250 | >79.1 | >250 | >250 | 1.6 | 8.7 | >250 | >250 | –
5 | KIKEKLKKIGQKIQGLL [Peptide 26] | – | – | – | – | – | – | – | – | – | – | – | – | >250 | >79.1 | >250 | 5.7 | 0.4 | 1.0 | >250 | >250 | –
6 | KNLRRIIRKIIHIIKKYG [Peptide 8] | – | – | – | – | – | – | – | – | – | – | – | – | 20.2 | 0.5 | 0.2 | 2.1 | 0.45 ± 0.10 | 0.67 ± 0.12 | 0.84 ± 0.14 | 0.77 ± 0.04 | E. coli ML-35p MIC, 175 mM NaCl (E. coli ML-35p): 0.41 ± 0.06 µg/mL; P. aeruginosa MR-3007 MIC, 175 mM NaCl (P. aeruginosa MR 3007): 0.59 ± 0.05 µg/mL; S. aureus 930918-3 MIC, 175 mM NaCl (S. aureus 930918-3): 0.86 ± 0.06 µg/mL; MRSA ATCC 33591 MIC, 175 mM NaCl (MRSA ATCC 33591): 0.89 ± 0.05 µg/mL; E. coli DH-5α MIC, 0 mM NaCl (E. coli DH-5α; DH-5α): 0.26 ± 0.05 µg/mL; E. coli DH-5α MIC, 175 mM NaCl (E. coli DH-5α; DH-5α): 0.35 ± 0.09 µg/mL; P. aeruginosa PA-01 MIC, 0 mM NaCl (P. aeruginosa PA-01): 0.83 ± 0.05 µg/mL; P. aeruginosa PA-01 MIC, 175 mM NaCl (P. aeruginosa PA-01): 0.82 ± 0.05 µg/mL
7 | KNLRRIIRKIIHIIKKYGPTILRIIRIIG-NH2 [Peptide 28] | – | – | – | – | – | – | – | – | – | – | – | – | 17.0 | 0.1 | 0.1 | 0.4 | 0.16 ± 0.03 | 0.34 ± 0.22 | 0.55 ± 0.17 | 0.32 ± 0.04 | E. coli ML-35p MIC, 175 mM NaCl (E. coli ML-35p): 0.58 ± 0.12 µg/mL; P. aeruginosa MR-3007 MIC, 175 mM NaCl (P. aeruginosa MR 3007): 0.49 ± 0.06 µg/mL; S. aureus 930918-3 MIC, 175 mM NaCl (S. aureus 930918-3): 1.14 ± 0.23 µg/mL; MRSA ATCC 33591 MIC, 175 mM NaCl (MRSA ATCC 33591): 1.57 ± 0.30 µg/mL; E. coli DH-5α MIC, 175 mM NaCl (E. coli DH-5α; DH-5α): 0.40 ± 0.09 µg/mL; E. coli DH-5α MIC, 0 mM NaCl (E. coli DH-5α; underlay 0 mM NaCl): 0.0042 µg/mL; P. aeruginosa PA-01 MIC, 0 mM NaCl (P. aeruginosa PA-01): 0.53 ± 0.14 µg/mL; P. aeruginosa PA-01 MIC, 175 mM NaCl (P. aeruginosa PA-01): 1.17 ± 0.23 µg/mL
8 | KRLRKFRNKIKEKLKKIG [CAP18-18] | 19.5 ± 8.2 | 1.05 ± 0.37 | 1.59 ± 0.29 | 200 ± 30 | 0.47 ± 0.06 | 1.5 | 2.8 | 3.2 | 2.1 | 29.0 | 9.7 | >250 | – | – | – | – | – | – | – | – | MIC MRSA [NaCl] Low (MRSA ATCC 33591): 14.9 µg/mL
9 | KRLRKFRNKIKEKLKKIG [Peptide 20] | – | – | – | – | – | – | – | – | – | – | – | – | >250 | >250 | >250 | 2.3 | 2.3 | 2.9 | 9.7 | 14.9 | –
10 | LRKFRNKIKEKLKKIGQKI [CAP18-19] | 8.0 ± 1.6 | 1.65 ± 0.27 | 3.06 ± 0.36 | 960 ± 130 | 2.27 ± 0.30 | 18.2 | 0.4 | 26.7 | 1.0 | >79.1 | 6.0 | >79.1 | – | – | – | – | – | – | – | – | MIC MRSA [NaCl] Low (MRSA ATCC 33591): 4.5 µg/mL
11 | LRKFRNKIKEKLKKIGQKI [Peptide 22] | – | – | – | – | – | – | – | – | – | – | – | – | >250 | >79.1 | >250 | 5.9 | 0.1 | 0.7 | 6.0 | 4.5 | –
12 | LRKFRNKIKEKLKKIGQKIQG [Peptide 23] | – | – | – | – | – | – | – | – | – | – | – | – | >250 | >79.1 | >250 | 5.5 | 0.2 | 1.5 | 16.3 | 10.3 | –
13 | LRRIIRKIIHIIKK-NH2 [Peptide 11] | – | – | – | – | – | – | – | – | – | – | – | – | >79.1 | 0.8 | 0.9 | 0.7 | 0.63 ± 0.05 | 0.92 ± 0.06 | 1.38 ± 0.21 | 4.42 ± 1.73 | E. coli ML-35p MIC, 175 mM NaCl (E. coli ML-35p): 49.2 ± 15.2 µg/mL; P. aeruginosa MR-3007 MIC, 175 mM NaCl (P. aeruginosa MR 3007): 20.1 ± 6.9 µg/mL; S. aureus 930918-3 MIC, 175 mM NaCl (S. aureus 930918-3): 16.4 ± 5.1 µg/mL; MRSA ATCC 33591 MIC, 175 mM NaCl (MRSA ATCC 33591): >79.1 µg/mL; E. coli DH-5α MIC, 0 mM NaCl (E. coli DH-5α; DH-5α): 0.85 ± 0.04 µg/mL; E. coli DH-5α MIC, 175 mM NaCl (E. coli DH-5α; DH-5α): 5.92 ± 1.02 µg/mL; P. aeruginosa PA-01 MIC, 0 mM NaCl (P. aeruginosa PA-01): 0.96 ± 0.05 µg/mL; P. aeruginosa PA-01 MIC, 175 mM NaCl (P. aeruginosa PA-01): 6.51 ± 1.02 µg/mL
14 | RKFRNKIKEKLKKIG [Peptide 24] | – | – | – | – | – | – | – | – | – | – | – | – | >250 | >250 | >250 | 24.1 | 9.7 | 5.1 | 19.5 | >250 | –
15 | RKRLRKFRNKIKEKLKKIGQKI [CAP18-22] | 9.8 ± 2.5 | 1.38 ± 0.49 | 0.88 ± 0.12 | 520 ± 160 | 1.47 ± 0.44 | 1.7 | 0.1 | 7.6 | 0.7 | >79.1 | 7.9 | >79.1 | – | – | – | – | – | – | – | – | MIC MRSA [NaCl] Low (MRSA ATCC 33591): 8.1 µg/mL
16 | RKRLRKFRNKIKEKLKKIGQKI [Peptide 21] | – | – | – | – | – | – | – | – | – | – | – | – | >250 | 22.0 | >250 | 7.0 | 0.2 | 0.2 | 7.9 | 8.1 | –
